# PubChem BioAssay (NCI)
#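 Cells were grown in 96-well plates and exposed to each compound for 48 hours at five concentrations; endpoints were interpolated linearly between bracketing concentrations, or set to the highest concentration if not reached. TGI marks complete inhibition of growth.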
# Experiments:
# Experiment in all cases: NCI-60 cell line screen, 48 h
# [1] = test system: HT29 colon
# [2] = test system: BT-549 breast
# [3] = test system: SR leukemia
# [4] = test system: MALME-3M melanoma
# [5] = test system: SN12C renal
# [6] = test system: SK-MEL-2 melanoma
# [7] = test system: MDA-MB-231 breast
# [8] = test system: ACHN renal
# [9] = test system: COLO 205 colon
# [10] = test system: PC-3 prostate
# [11] = test system: IGROV1 ovarian
# [12] = test system: NCI-H23 lung
# [13] = test system: SK-OV-3 ovarian
# [14] = test system: KM12 colon
# [15] = test system: NCI/ADR-RES ovarian
# [16] = test system: HCC-2998 colon
# [17] = test system: MDA-MB-435
# [18] = test system: A498 renal
# [19] = test system: HS 578T breast
# [20] = test system: A549 NSCLC
# [21] = test system: SNB-19 CNS
# [22] = test system: MCF7 breast
# [23] = test system: OVCAR-3 ovarian
# [24] = test system: SF-268 CNS
# [25] = test system: TK-10 renal
# [26] = test system: OVCAR-5 ovarian
# [27] = test system: SF-295 CNS
# [28] = test system: SK-MEL-28 melanoma
# [29] = test system: UACC-257 melanoma
# [30] = test system: UO-31 renal
# [31] = test system: SNB-75 CNS
# [32] = test system: CCRF-CEM leukemia
# [33] = test system: MDA-N
# [34] = test system: HOP-62 NSCLC
# [35] = test system: EKVX NSCLC
# [36] = test system: SF-539 CNS
# [37] = test system: OVCAR-4 ovarian
# [38] = test system: NCI-H522 lung
# [39] = test system: RXF 393 renal
# [40] = test system: OVCAR-8 ovarian
# [41] = test system: 786-0 renal
# [42] = test system: U251 CNS
# [43] = test system: SK-MEL-5 melanoma
# [44] = test system: T-47D breast
# [45] = test system: HL-60(TB) leukemia
# [46] = test system: M14 melanoma
# [47] = test system: CAKI-1 renal
# [48] = test system: UACC-62 melanoma
# [49] = test system: HCT-116 colon
# [50] = test system: SW-620 colon
# [51] = test system: K-562 leukemia
# [52] = test system: DU-145 prostate
# [53] = test system: LOX IMVI melanoma
# [54] = test system: RPMI-8226 leukemia
# [55] = test system: NCI-H460 lung
structure (smiles),measurement,setting,value
CCOC(=O)Cc1c(C(=O)OCC)[n+](=O)c2cc(Cl)c(Cl)cc2n1[O-],TGI,[1],5.2 µM
same,TGI,[2],6.53 µM
same,TGI,[3],2.11 µM
same,TGI,[4],3.21 µM
same,TGI,[5],6.95 µM
same,TGI,[6],7.73 µM
same,TGI,[7],7.02 µM
same,TGI,[8],3.38 µM
same,TGI,[9],3.27 µM
same,TGI,[10],4.69 µM
same,TGI,[11],2.35 µM
same,TGI,[12],5.49 µM
same,TGI,[13],11.9 µM
same,TGI,[14],2.95 µM
same,TGI,[15],8.61 µM
same,TGI,[16],5.1 µM
same,TGI,[17],9.03 µM
same,TGI,[18],6.14 µM
same,TGI,[19],6.46 µM
same,TGI,[20],3.72 µM
same,TGI,[21],11.9 µM
same,TGI,[22],13.3 µM
same,TGI,[23],5.04 µM
same,TGI,[24],7.87 µM
same,TGI,[25],2.83 µM
same,TGI,[26],5.24 µM
same,TGI,[27],13.5 µM
same,TGI,[28],17.4 µM
same,TGI,[29],5.51 µM
same,TGI,[30],3.36 µM
same,TGI,[31],4.63 µM
same,TGI,[32],6.29 µM
same,TGI,[33],11.9 µM
same,TGI,[34],4.27 µM
same,TGI,[35],11.4 µM
same,TGI,[36],5.44 µM
same,TGI,[37],3.51 µM
same,TGI,[38],3.63 µM
same,TGI,[39],4.91 µM
same,TGI,[40],6.2 µM
same,TGI,[41],3.84 µM
same,TGI,[42],9.67 µM
same,TGI,[43],3.04 µM
same,TGI,[44],6.76 µM
same,TGI,[45],5.74 µM
same,TGI,[46],5.98 µM
same,TGI,[47],11.1 µM
same,TGI,[48],5.45 µM
same,TGI,[49],7.27 µM
same,TGI,[50],4.08 µM
same,TGI,[51],5.65 µM
same,TGI,[52],3.68 µM
same,TGI,[53],4.65 µM
same,TGI,[54],2.18 µM
same,TGI,[55],3.46 µM
